# Laboratory results taken from patent publication US10393751B2, “Specific peptide binders to proteins identified via systematic discovery, maturation and extension process” (Roche […], Inc., priority 2015, dated 2019).
# Molecular target: streptavidin (Streptomyces avidinii, UniProt P22629)
# Test: Surface Plasmon Resonance (Biacore X100) of synthesized peptides on immobilized streptavidin
# Assay type: binding
# Settings: for KD (equilibrium dissociation constant, kd/ka) / Kd / kon / koff: SPR; for kon: read-out: Ka (association rate constant); for koff: read-out: Kd (dissociation rate constant)
# Text: A selection of streptavidin peptide binders listed in Table 15 were synthesized using standard column-based synthesis techniques by UW Biotechnology center (Madison, Wis.) or by Peptide2.0 (Chantilly, Va.) at 98-99% purity. Strep-tag II peptide NH2-SAWSHPQFEK-COOH was purchased from IBA GmbH (Goettingen, Germany). Synthesized peptides were then characterized by Surface Plasmon Resonance (SPR) to identify binding characteristics including the association rate constant (ks), dissociation rate constant (kd), and equilibrium dissociation rate constant (kd/ka=KD). In one aspect, SPR experiments were performed by using Biacore X100 instrument (GE Healthcare). Preliminarily, 60 μl of 100 μg/ml streptavidin in 10 mM Na-acetate, pH5.0 was immobilized to flow cell 2 (Fc2) of a sensor chip CM5 (GE Healthcare) using Amine Coupling Kit (GE Healthcare) at 20° C. for 6 min. Peptide stock solutions were prepared at 5 or 10 mM concentration in water and diluted in HBS-EP+ (GE Healthcare) buffer before SPR experiments. Peptide binding was performed in a multiple kinetics mode using HBS-EP+ as a running buffer and 0.2 M NaCl, 10 mM NaOH or 10 mM HCl-glycine, […] as regeneration buffer. Binding kinetics parameters were calculated with Biacore X100 software.
# [1] = streptavidin immobilized on CM5 chip, HBS-EP+ running buffer
# [2] = KD (equilibrium dissociation constant, kd/ka), streptavidin immobilized on CM5 chip, HBS-EP+ running buffer
# [3] = KD of peptide-streptavidin complex, restated in text from Table 15
# Sequence of streptavidin (P22629 25-183, species assumed): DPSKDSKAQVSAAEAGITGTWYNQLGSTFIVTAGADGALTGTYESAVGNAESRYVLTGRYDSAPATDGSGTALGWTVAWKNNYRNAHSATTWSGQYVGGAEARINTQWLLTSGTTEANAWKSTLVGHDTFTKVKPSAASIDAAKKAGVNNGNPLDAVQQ
Substance,"KD (equilibrium dissociation constant, kd/ka) [1]",kon [1] [M⁻¹ s⁻¹],KD as compared with the Strep-Tag II peptide (SEQ ID NO:233) (result in words),further results
GNSFDDWLASKG [NH2-GNSFDDWLASKG-amide],Irreversible,,,binding as compared with the parent peptide NSFDDWLAKGG (result in words): irreversible binding
H-ADYLAEYHGG-OH [NH2-ADYLAEYHGG-COOH],,,,Kd [2]: 96 ± 5 µM; Kd [3]: ~96 µM
H-AFDYLAQYHGG-NH2 [NH2-AFDYLAQYHGG-amide],,23300,,koff [1]: 0.0354 s⁻¹
H-AFPDYLAEYHGG-NH2 [NH2-AFPDYLAEYHGG-amide],0.043 µM,30100,,koff [1]: 0.00128 s⁻¹; KD rank among the streptavidin peptide binders in Table 15 (result in words): lowest KD
H-DPAPAWAHGG-OH [NH2-DPAPAWAHGG-COOH],,,,Kd [2]: > 500 µM
H-EWVHPQFEQKAK-NH2 [NH2-EWVHPQFEQKAK-amide],,,decreased KD,
H-RDPAPAWAHGGG-NH2 [NH2-RDPAPAWAHGGG-amide],4.66 µM,14900,,Kd [3]: ~4.66 µM; change in KD as compared with the parent peptide (parent peptide DPAPAWAHGG (SEQ ID NO:242)): ≥ 100 fold
H-WTHPQFEQK-OH [NH2-WTHPQFEQK-COOH],,,decreased KD,
H-WTHPQFEQPKA-NH2 [NH2-WTHPQFEQPKA-amide],,,decreased KD,
